Reference: patent publication US9227972B2, “Aliphatic spirolactam CGRP receptor antagonists” (Merck Sharp & Dohme Corp., priority 2012, dated 2016)

What was measured:
[1] = molecular target: T1, recombinant human CL receptor/RAMP1 (Homo sapiens, UniProt O60894+Q16602); test: Recombinant receptor functional assay (cAMP, HTRF); type: cell-based; conditions: HEK 293 cells, 1.2 nM human α-CGRP, cAMP determination
T1 construct: expressed in transfected cells
Description: (§1) RECOMBINANT RECEPTOR: Human CL receptor (Genbank accession number L76380) was subcloned into the expression vector pIREShyg2 (BD Biosciences Clontech) as a 5′NheI and 3′ PmeI fragment. Human RAMP1 (Genbank accession number AJ001014) was subcloned into the expression vector pIRESpuro2 (BD Biosciences Clontech) as a 5′NheI and 3′NotI fragment. HEK 293 cells (human embryonic kidney cells; ATCC #CRL-1573) were cultured in DMEM with 4.5 g/L glucose, 1 mM sodium pyruvate and 2 mM glutamine supplemented with 10% fetal bovine serum (FBS), 100 units/mL penicillin and 100 μg/mL streptomycin, and maintained at 37° C. and 95% humidity. Cells were subcultured by treatment with 0.25% trypsin with 0.1% EDTA in HBSS. Stable cell line generation was accomplished by co-transfecting 10 μg of DNA with 30 μg Lipofectamine 2000 (Invitrogen) in 75 cm^2 flasks. CL receptor and RAMP1 expression constructs were co-transfected in equal amounts. […]
RECOMBINANT RECEPTOR FUNCTIONAL ASSAY: Cells were resuspended in DMEM/F12 (Hyclone) supplemented with 1 g/L BSA and 300 μM isobutyl-methylxanthine. […] Raw data were transformed into concentration of cAMP using a standard curve then dose response curves were plotted and inflection point (IP) values were determined.

[2] = molecular target: T1, recombinant human CL receptor/RAMP1; test: Recombinant receptor binding assay (125I-hCGRP); conditions: membranes of HEK 293 cells expressing human CL receptor/RAMP1, 10 pM 125I-hCGRP, 3 h room temperature
Description: as §1
[formula] Where Y is observed CPM bound, Ymax is total bound counts, Ymin is non specific bound counts, (Ymax−Ymin) is specific bound counts, % Imax is the maximum percent inhibition, % I min is the minimum percent inhibition, radiolabel is the probe, and the Kd is the apparent dissociation constant for the radioligand for the receptor as determined by hot saturation experiments.

T1 sequence (Q16602 23-461): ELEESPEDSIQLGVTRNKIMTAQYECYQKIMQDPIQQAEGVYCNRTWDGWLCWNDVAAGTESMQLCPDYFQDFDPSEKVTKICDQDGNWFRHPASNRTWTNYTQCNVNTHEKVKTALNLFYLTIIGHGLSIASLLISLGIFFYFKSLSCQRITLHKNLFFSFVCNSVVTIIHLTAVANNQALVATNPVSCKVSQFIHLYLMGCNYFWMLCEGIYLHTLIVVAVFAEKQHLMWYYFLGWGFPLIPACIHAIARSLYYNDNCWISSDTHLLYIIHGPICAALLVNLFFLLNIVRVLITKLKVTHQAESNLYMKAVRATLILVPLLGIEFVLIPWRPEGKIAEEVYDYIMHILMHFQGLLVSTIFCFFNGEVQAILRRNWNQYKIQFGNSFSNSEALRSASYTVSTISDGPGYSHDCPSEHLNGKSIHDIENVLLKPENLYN
T1 sequence (O60894 27-148): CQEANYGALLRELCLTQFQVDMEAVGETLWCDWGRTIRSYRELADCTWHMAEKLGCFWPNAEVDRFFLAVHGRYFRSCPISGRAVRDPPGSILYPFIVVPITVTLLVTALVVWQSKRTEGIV

SMILES | IC50 [1] [nM] | Ki [2] [nM]
CC1C(c2cc(F)cc(F)c2F)CC(CC=Cc2cnc3c(c2)C[C@@]2(C3)C(=O)Nc3ncccc32)C(=O)N1CC(F)(F)F (stereo partly drawn) [Example 1, (3′S)-3-(3-(6-Methyl-2-oxo-1-(2,2,2-trifluoroethyl)-5-(2,3,5-trifluorophenyl)piperidin-3-yl)prop-1-en-1-yl)-5,7-dihydrospiro[cyclopenta[b]pyridine-6,3′-pyrrolo[2,3-b]pyridin]-2′(1′H)-one] | 7.2 | –
C[C@@H]1[C@H](c2ccccc2)C[C@H](NCC(F)(F)c2cnc3c(c2)C[C@@]2(C3)C(=O)Nc3ncccc32)C(=O)N1CC(F)(F)F [Example 2, (6S)-3-(1,1-Difluoro-2-(((3S,5S,6R)-6-methyl-2-oxo-5-phenyl-1-(2,2,2-trifluoroethyl)piperidin-3-yl)amino)ethyl)-5,7-dihydrospiro[cyclopenta[b]pyridine-6,3′-pyrrolo[2,3-b]pyridin]-2′(1′H)-one] | – | 409
C[C@@H]1[C@H](c2ccccc2)C[C@H](NS(=O)(=O)c2cnc3c(c2)C[C@@]2(C3)C(=O)Nc3ncccc32)C(=O)N1CC(F)(F)F [Example 3, (6S)—N-[(3S,5S,6R)-6-Methyl-2-oxo-5-phenyl-1-(2,2,2-trifluoroethyl)piperidin-3-yl]-2′-oxo-1′,2′,5,7-tetrahydrospiro[cyclopenta[b]pyridine-6,3′-pyrrolo[2,3-b]pyridine]-3-sulfonamide] | 3720 | –
